Measurements: ChEMBL document CHEMBL4831531, “Mangostanin Derivatives as Novel and Orally Active Phosphodiesterase 4 Inhibitors for the Treatment of Idiopathic Pulmonary Fibrosis with Improved Safety” (J Med Chem, 2021)
The source made the active and inactive calls. The rule behind the calls is not given here.

Tests used:
[1] = molecular target: cGMP-dependent 3',5'-cyclic phosphodiesterase (Homo sapiens, UniProt O00408); test: Inhibition of PDE2A (580-919) (unknown origin) expressed in Escherichia coli BL21 assessed as using [3H]-cAMP as substrate measured for 15 mins by liquid scintillation counting analysis
[2] = molecular target: High affinity 3',5'-cyclic-AMP phosphodiesterase 7A (Homo sapiens, UniProt Q13946); test: Inhibition of PDE7A1 (130-482) (unknown origin) expressed in Escherichia coli BL21 assessed as using [3H]-cAMP as substrate measured for 15 mins by liquid scintillation counting analysis
[3] = Tmax in Sprague-Dawley rat at 5 mg/kg, po; assay type: ADME, organism-based; details: in vivo
[4] = tested on: Rattus norvegicus; test: Anti-idiopathic pulmonary fibrotic activity in bleomycin-induced Sprague-Dawley rat model assessed as inhibition of collagen deposition around trachea and cell hyperplasia at 10 mg/kg, po treated for 28 consecutive days by Hematoxylin and eosin staining based assay relative to control; assay type: functional
[5] = AUC (0 to infinity) in Sprague-Dawley rat at 10 mg/kg, po; assay type: ADME, organism-based; parameters: route oral, time infinity, dose 10 mg/kg; details: in vivo
[6] = Acute toxicity in mouse at 1.5 g/Kg, po; details: in vivo, 1500 mg/kg
[7] = molecular target: T1, Cytochrome P450 2B6 (Homo sapiens, UniProt P20813); test: Inhibition of human hepatic CYP2B6; assay type: ADME, tissue-based, Liver
T1 sequence (P20813 whole entry): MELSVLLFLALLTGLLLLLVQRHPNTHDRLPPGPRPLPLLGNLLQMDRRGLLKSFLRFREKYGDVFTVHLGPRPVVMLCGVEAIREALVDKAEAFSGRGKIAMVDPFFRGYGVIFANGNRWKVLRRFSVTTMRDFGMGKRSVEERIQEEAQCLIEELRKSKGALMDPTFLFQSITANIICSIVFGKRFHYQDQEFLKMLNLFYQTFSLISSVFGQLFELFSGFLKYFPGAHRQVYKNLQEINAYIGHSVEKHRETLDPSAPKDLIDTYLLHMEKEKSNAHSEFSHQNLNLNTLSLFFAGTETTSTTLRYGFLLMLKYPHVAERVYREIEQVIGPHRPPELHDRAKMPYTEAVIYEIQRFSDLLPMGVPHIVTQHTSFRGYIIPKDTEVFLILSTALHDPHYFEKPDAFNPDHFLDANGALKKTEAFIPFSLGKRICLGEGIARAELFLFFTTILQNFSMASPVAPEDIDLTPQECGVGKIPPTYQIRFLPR

[8] = Half life in Sprague-Dawley rat at10 mg/kg, po; assay type: ADME, organism-based; details: in vivo, dose 10 mg/kg
[9] = tested on: Rattus norvegicus; test: Anti-idiopathic pulmonary fibrotic activity in bleomycin-induced Sprague-Dawley rat model assessed as reversal of peak expiratory flow at 10 mg/kg, po treated for 28 consecutive days relative to control; assay type: functional, organism-based
[10] = molecular target: cAMP and cAMP-inhibited cGMP 3',5'-cyclic phosphodiesterase 10A (Homo sapiens, UniProt Q9Y233); test: Inhibition of PDE10A2 (449-770) (unknown origin) expressed in Escherichia coli BL21 assessed as using [3H]-cAMP as substrate measured for 15 mins by liquid scintillation counting analysis
cAMP and cAMP-inhibited cGMP 3',5'-cyclic phosphodiesterase 10A, sequence (Q9Y233 whole entry): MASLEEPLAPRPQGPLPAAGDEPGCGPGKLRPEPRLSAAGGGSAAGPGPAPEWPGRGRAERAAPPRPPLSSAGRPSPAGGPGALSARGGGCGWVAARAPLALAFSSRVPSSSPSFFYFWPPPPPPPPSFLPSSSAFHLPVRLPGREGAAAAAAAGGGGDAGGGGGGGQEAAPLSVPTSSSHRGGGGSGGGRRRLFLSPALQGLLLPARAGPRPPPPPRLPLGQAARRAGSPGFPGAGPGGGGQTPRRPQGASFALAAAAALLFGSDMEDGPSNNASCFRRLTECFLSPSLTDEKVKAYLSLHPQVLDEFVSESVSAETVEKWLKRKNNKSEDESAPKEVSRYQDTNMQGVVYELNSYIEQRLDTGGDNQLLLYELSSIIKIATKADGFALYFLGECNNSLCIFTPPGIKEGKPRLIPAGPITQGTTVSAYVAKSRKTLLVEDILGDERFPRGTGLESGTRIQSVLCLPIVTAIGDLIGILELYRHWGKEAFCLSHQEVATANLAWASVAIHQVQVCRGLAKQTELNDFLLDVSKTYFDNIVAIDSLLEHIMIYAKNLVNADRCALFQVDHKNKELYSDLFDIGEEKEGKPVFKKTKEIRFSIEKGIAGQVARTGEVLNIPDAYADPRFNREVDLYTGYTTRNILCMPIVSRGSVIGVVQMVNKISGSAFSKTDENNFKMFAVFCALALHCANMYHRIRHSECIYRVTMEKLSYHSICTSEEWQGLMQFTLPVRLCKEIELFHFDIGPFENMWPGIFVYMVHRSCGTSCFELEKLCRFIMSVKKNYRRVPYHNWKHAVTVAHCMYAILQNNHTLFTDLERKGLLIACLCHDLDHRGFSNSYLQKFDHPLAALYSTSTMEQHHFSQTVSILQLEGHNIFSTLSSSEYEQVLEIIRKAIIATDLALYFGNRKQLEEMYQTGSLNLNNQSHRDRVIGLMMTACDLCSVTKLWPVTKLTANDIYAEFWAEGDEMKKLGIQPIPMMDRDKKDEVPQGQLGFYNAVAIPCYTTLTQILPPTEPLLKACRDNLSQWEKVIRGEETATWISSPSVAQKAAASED

High affinity 3',5'-cyclic-AMP phosphodiesterase 7A, sequence (Q13946 whole entry): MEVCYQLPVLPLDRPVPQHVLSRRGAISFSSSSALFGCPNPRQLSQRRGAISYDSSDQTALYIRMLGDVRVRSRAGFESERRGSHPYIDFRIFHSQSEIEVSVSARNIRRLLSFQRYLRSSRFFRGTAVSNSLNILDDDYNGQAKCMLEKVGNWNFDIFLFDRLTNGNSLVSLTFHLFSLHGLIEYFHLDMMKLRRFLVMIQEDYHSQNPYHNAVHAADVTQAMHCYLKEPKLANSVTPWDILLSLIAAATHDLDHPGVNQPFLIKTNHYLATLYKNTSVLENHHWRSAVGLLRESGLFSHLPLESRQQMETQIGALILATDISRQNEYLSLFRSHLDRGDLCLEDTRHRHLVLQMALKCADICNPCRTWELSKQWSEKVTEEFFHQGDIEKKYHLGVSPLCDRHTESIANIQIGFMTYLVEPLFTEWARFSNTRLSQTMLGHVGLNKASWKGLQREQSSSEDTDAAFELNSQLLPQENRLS
cGMP-dependent 3',5'-cyclic phosphodiesterase, sequence (O00408 whole entry): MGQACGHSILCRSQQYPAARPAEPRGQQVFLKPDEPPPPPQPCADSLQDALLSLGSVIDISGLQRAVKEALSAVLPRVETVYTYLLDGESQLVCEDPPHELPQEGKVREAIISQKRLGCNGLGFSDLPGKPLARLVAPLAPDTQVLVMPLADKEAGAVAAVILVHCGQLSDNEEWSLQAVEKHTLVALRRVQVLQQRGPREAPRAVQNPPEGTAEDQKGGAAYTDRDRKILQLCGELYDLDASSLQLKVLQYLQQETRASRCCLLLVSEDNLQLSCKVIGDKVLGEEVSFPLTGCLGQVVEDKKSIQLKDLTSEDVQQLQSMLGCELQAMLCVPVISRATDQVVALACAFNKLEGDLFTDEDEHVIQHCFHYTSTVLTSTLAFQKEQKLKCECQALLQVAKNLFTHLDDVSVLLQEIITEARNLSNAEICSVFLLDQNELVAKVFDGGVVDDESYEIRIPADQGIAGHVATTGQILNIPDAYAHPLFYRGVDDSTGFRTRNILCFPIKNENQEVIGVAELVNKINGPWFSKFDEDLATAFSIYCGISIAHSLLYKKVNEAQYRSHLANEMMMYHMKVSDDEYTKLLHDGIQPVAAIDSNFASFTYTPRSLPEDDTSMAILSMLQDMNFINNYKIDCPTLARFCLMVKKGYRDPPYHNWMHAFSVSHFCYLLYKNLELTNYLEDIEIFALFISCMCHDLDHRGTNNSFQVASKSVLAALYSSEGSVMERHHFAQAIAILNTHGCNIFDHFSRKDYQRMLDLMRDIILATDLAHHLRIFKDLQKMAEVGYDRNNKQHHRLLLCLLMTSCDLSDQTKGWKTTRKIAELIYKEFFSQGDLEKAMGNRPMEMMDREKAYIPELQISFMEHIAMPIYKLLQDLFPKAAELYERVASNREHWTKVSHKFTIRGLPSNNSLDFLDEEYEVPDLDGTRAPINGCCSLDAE

`COc1c(OCc2ccc(F)cc2)cc2oc3cc4c(c(OC/C=C/C(=O)O)c3c(=O)c2c1CC=C(C)C)C=CC(C)(C)O4` gave an IC50 [1] of 940 nM, an IC50 [2] of 298 nM and a Tmax [3] of 1 h. The inhibition in vivo at 10 mg/kg [4] was 100%, the AUC(0-inf) [5] was 2110 ng·h/mL and the Activity [6] was “Non-Toxic”. The IC50 [7] was over 25000 nM, the half-life [8] was 1.02 h and the Activity [9] was “Active”. The IC50 [10] was 260 nM.
